Earlier results as cited in EP3811932A1, “DOSAGE FORM OF APALUTAMIDE” (Zentiva K.S., priority 2019, dated 2021).

Conditions: over a wide range of pH values

SMILES: CNC(=O)c1ccc(N2C(=S)N(c3cnc(C#N)c(C(F)(F)F)c3)C(=O)C23CCC3)cc1F [Apalutamide, 4-[7-[6-cyano-5-(trifluoromethyl)pyridin-3-yl]-8-oxo-6-thioxo-5,7-diazaspiro[3.4]octan-5-yl]-2-fluoro-N-methylbenzamide]
- solubility in aqueous media: practically insoluble
